Test results from patent publication US5258406A, “Sulfonimidamides” (priority 1992, dated 1993).
Like-named read-outs stand apart in the source and are kept apart here.

Tests used:
6C3HED lymphosarcoma = test: animal or person; assay type: in vivo; conditions: for inhibition in vivo at 600 mg/kg: read-out: % inhibition of tumor growth, oral, 600 mg/kg, DX 8
Description: (§1) The compounds were tested in C3H mice bearing a 6C3HED lymphosarcoma, also known as the Gardner lymphosarcoma (GLS), and in a variety of human tumor xenografts in CD1 nu/nu mice, including CX-1, LX-1, HXGC3, and VRC5. The 6C3HED lymphosarcoma was obtained from the Division of Cancer Treatment, National […] Institute, Tumor Bank, maintained at E. G. and G. Mason Research (Worcester, Mass.). The CX-1 human colon carcinoma and the LX-1 human lung carcinoma xenografts were obtained from the National Cancer Institute. The HXGC3 and VRC5 human colon xenografts were obtained from Dr. P. J. Houghton, St. Jude Children's Hospital in Memphis (see Br. J. Cancer, 37, 213 (1978)). First passage tumor was stored in liquid nitrogen using standard techniques. The transplanted tumor was reestablished from the Tumor Bank every six months or as needed. The tumor was maintained by serial passage twice weekly in C3H mice.
(§2) In the procedure the tumor was removed from passage animals and minced into 1- to 3-mm square fragments using sterile techniques. Tumor pieces were checked for sterility using both Antibiotic Medium 1 and Brain Heart Infusion (Difco, Detroit, Mich.). Recipient mice were shaved and tumor pieces were implanted subcutaneously in the auxiliary region by trocar. Drug therapy on the appropriate schedule was initiated on the day after tumor implant for 6C3HED and after a seven (7) day delay for xenografts (or other delay as noted in Table 2). The compound being tested was mixed with 2.5% Emulphor EL620 from GAF Corporation (1:40 dilution in saline). Food and water were provided ad libitium. The drug was administered orally in 0.5 ml of 2.5% Emulphor (unless otherwise indicated). The tumor was measured the day after treatment ended with two dimensional measurements (width and length) of the tumor taken using automated digital calipers interfaced to a microcomputer. Approximate weight for the tumor was calculated using the following formula [Worzalla, J. F., et al., Invest. New Drugs, 8, 241 (1990], (tumor weight in mg)=(width in mm)^2 ×(length in mm)/2.
(§3) At least one control group of an equal number of mice was treated with the same volume of 2.5% Emulphor only. The percent inhibition was determined by subtracting the ratio of the mean tumor size of the test group relative to the control group from one and multiplying the result times 100.
(§4) The results of several experiments in mice bearing a 6C3HED lymphosarcoma (or other tumor where indicated) when the indicated compounds were administered are provided in Table 2. In Table 2, column 1 gives the Example number of the compound used, column 2 lists the dose level in mg/kg, column 3 provides the percent inhibition of tumor growth, column 4 gives the number of mice which died relative to the total number of animals in the group, column 5 gives the method of administration of the compound, and column 6 gives the dosage schedule. The protocol used with other tumors was the same as with the 6C3HED lymphosarcoma.

LX1 = assay type: in vivo
Description: as §1, §2, §3, §4

[1] = oral, 150 mg/kg, Days 1, 3, 5, 7
[2] = Mus musculus, 6C3HED, po, read-out: % inhibition of tumor growth, oral, 150 mg/kg, BIDX 8

## CN=S(=O)(NC(=O)Nc1ccc(Cl)cc1)c1ccc(C)cc1 (stereo not shown) [Example 3, N-[[(4-Chlorophenyl)amino]carbonyl]-N',4-dimethylbenzenesulfonimidamide]
6C3HED lymphosarcoma; Mus musculus, 6C3HED, po, read-out: % inhibition of tumor growth, oral, 12.5 mg/kg, BIDX 8
  inhibition in vivo at 12.5 mg/kg: 58%
6C3HED lymphosarcoma; Mus musculus, 6C3HED, po, read-out: % inhibition of tumor growth, oral, 25 mg/kg, BIDX 8
  inhibition in vivo at 25 mg/kg: 82%
6C3HED lymphosarcoma; Mus musculus, 6C3HED, po, read-out: % inhibition of tumor growth, oral, 50 mg/kg, BIDX 8
  inhibition in vivo at 50 mg/kg: 91%
6C3HED lymphosarcoma; Mus musculus, 6C3HED, po, read-out: % inhibition of tumor growth, oral, 75 mg/kg, DX 8
  inhibition in vivo at 75 mg/kg: 81%
6C3HED lymphosarcoma; Mus musculus, 6C3HED, po, read-out: % inhibition of tumor growth, oral, 100 mg/kg, BIDX 8
  inhibition in vivo at 100 mg/kg: 99%
6C3HED lymphosarcoma; Mus musculus, 6C3HED, po, read-out: % inhibition of tumor growth, oral, 150 mg/kg, DX 8
  inhibition in vivo at 150 mg/kg: 93%
6C3HED lymphosarcoma; Mus musculus, 6C3HED, po, read-out: % inhibition of tumor growth, oral, 200 mg/kg, BIDX 8
  inhibition in vivo at 200 mg/kg: 100%
6C3HED lymphosarcoma; Mus musculus, 6C3HED, po, read-out: % inhibition of tumor growth, oral, 300 mg/kg, DX 8
  inhibition in vivo at 300 mg/kg: 99%
6C3HED lymphosarcoma; Mus musculus, 6C3HED, po
  inhibition in vivo at 600 mg/kg: 100%
6C3HED lymphosarcoma; oral, 12.5 mg/kg, BIDX 8
  Tox/Tot (mice which died / total): 0/10
6C3HED lymphosarcoma; oral, 25 mg/kg, BIDX 8
  Tox/Tot (mice which died / total): 0/10
6C3HED lymphosarcoma; oral, 50 mg/kg, BIDX 8
  Tox/Tot (mice which died / total): 0/10
6C3HED lymphosarcoma; oral, 75 mg/kg, DX 8
  Tox/Tot (mice which died / total): 0/10
6C3HED lymphosarcoma; oral, 100 mg/kg, BIDX 8
  Tox/Tot (mice which died / total): 0/10
6C3HED lymphosarcoma; oral, 150 mg/kg, DX 8
  % inhibition of tumor growth: 96%
  Tox/Tot (mice which died / total): 1/10
6C3HED lymphosarcoma; oral, 200 mg/kg, BIDX 8
  Tox/Tot (mice which died / total): 0/10
6C3HED lymphosarcoma; oral, 300 mg/kg, DX 8
  Tox/Tot (mice which died / total): 0/10
6C3HED lymphosarcoma; oral, 600 mg/kg, DX 8
  Tox/Tot (mice which died / total): 4/10
6C3HED lymphosarcoma; oral, 1200 mg/kg, DX 8
  % inhibition of tumor growth: TOX
  Tox/Tot (mice which died / total): 10/10
LX1; oral, 150 mg/kg, BIDX 10
  % inhibition of tumor growth: TOX
  Tox/Tot (mice which died / total): 8/8
LX1; oral, 300 mg/kg, BIDX 10
  % inhibition of tumor growth: TOX
  Tox/Tot (mice which died / total): 8/8

## Cc1cc(S(=N)(=O)NC(=O)Nc2ccc(Cl)cc2)cc(C)c1C (stereo not shown) [Example 45, N-[[(4-chlorophenyl)amino]carbonyl]-3,4,5-trimethylbenzenesulfonimidamide]
6C3HED lymphosarcoma; Mus musculus, 6C3HED, po, read-out: % inhibition of tumor growth, oral, 9.37 mg/kg, Days 1, 3, 5, 7
  inhibition in vivo at 9.37 mg/kg: 78%
6C3HED lymphosarcoma; Mus musculus, 6C3HED, po, read-out: % inhibition of tumor growth, oral, 18.75 mg/kg, Days 1, 3, 5, 7
  inhibition in vivo at 18.75 mg/kg: 95%
6C3HED lymphosarcoma; Mus musculus, 6C3HED, po, read-out: % inhibition of tumor growth, oral, 37.5 mg/kg, Days 1, 3, 5, 7
  inhibition in vivo at 37.5 mg/kg: 99%
6C3HED lymphosarcoma; Mus musculus, 6C3HED, po, read-out: % inhibition of tumor growth, oral, 75 mg/kg, Days 1, 3, 5, 7
  inhibition in vivo at 75 mg/kg: 99%
6C3HED lymphosarcoma; Mus musculus, 6C3HED, po, read-out: % inhibition of tumor growth, oral, 150 mg/kg, Days 1, 3, 5, 7
  inhibition in vivo at 150 mg/kg: 100%
6C3HED lymphosarcoma; Mus musculus, 6C3HED, po, read-out: % inhibition of tumor growth, oral, 300 mg/kg, Days 1, 3, 5, 7
  inhibition in vivo at 300 mg/kg: 100%
6C3HED lymphosarcoma; oral, 9.37 mg/kg, Days 1, 3, 5, 7
  Tox/Tot (mice which died / total): 0/10
6C3HED lymphosarcoma; oral, 18.75 mg/kg, Days 1, 3, 5, 7
  Tox/Tot (mice which died / total): 0/10
6C3HED lymphosarcoma; oral, 37.5 mg/kg, Days 1, 3, 5, 7
  Tox/Tot (mice which died / total): 2/10
6C3HED lymphosarcoma; oral, 75 mg/kg, Days 1, 3, 5, 7
  Tox/Tot (mice which died / total): 1/10
6C3HED lymphosarcoma; [1]
  % inhibition of tumor growth: 99%
  Tox/Tot (mice which died / total): 2/10
6C3HED lymphosarcoma; oral, 300 mg/kg, Days 1, 3, 5, 7
  Tox/Tot (mice which died / total): 3/10
LX1; oral, 150 mg/kg, Days 1, 4, 7, 10, from day 7 after implant
  Tox/Tot (mice which died / total): 0/9
LX1; oral, 300 mg/kg, Days 1, 4, 7, 10, from day 7 after implant
  Tox/Tot (mice which died / total): 0/10
LX1; po, 150 mg/kg, 168 h
  % inhibition of tumor growth: 40%
LX1; po, 300 mg/kg, 168 h
  % inhibition of tumor growth: 31%

## N=S(=O)(NC(=O)Nc1ccc(Cl)cc1)c1ccc2c(c1)CCC2 (stereo not shown) [Example 54, N-[[(4-chlorophenyl)amino]carbonyl]-5-indanylsulfonimidamide]
6C3HED lymphosarcoma; IP, 12.5 mg/kg, BIDX 8
  Tox/Tot (mice which died / total): 0/10
6C3HED lymphosarcoma; IP, 25 mg/kg, BIDX 8
  Tox/Tot (mice which died / total): 0/10
6C3HED lymphosarcoma; IP, 50 mg/kg, BIDX 8
  Tox/Tot (mice which died / total): 0/10
6C3HED lymphosarcoma; IP, 100 mg/kg, BIDX 8
  Tox/Tot (mice which died / total): 0/10
6C3HED lymphosarcoma; IP, 150 mg/kg, DX 8
  Tox/Tot (mice which died / total): 1/10
6C3HED lymphosarcoma; IP, 300 mg/kg, DX 8
  Tox/Tot (mice which died / total): 3/10
6C3HED lymphosarcoma; IV, 12.5 mg/kg, DX 8
  Tox/Tot (mice which died / total): 0/10
6C3HED lymphosarcoma; IV, 25 mg/kg, DX 8
  Tox/Tot (mice which died / total): 0/10
6C3HED lymphosarcoma; Mus musculus, 6C3HED, ip, read-out: % inhibition of tumor growth, IP, 12.5 mg/kg, BIDX 8
  inhibition in vivo at 12.5 mg/kg: 6%
6C3HED lymphosarcoma; Mus musculus, 6C3HED, ip, read-out: % inhibition of tumor growth, IP, 25 mg/kg, BIDX 8
  inhibition in vivo at 25 mg/kg: 30%
6C3HED lymphosarcoma; Mus musculus, 6C3HED, ip, read-out: % inhibition of tumor growth, IP, 50 mg/kg, BIDX 8
  inhibition in vivo at 50 mg/kg: 44%
6C3HED lymphosarcoma; Mus musculus, 6C3HED, ip, read-out: % inhibition of tumor growth, IP, 100 mg/kg, BIDX 8
  inhibition in vivo at 100 mg/kg: 70%
6C3HED lymphosarcoma; Mus musculus, 6C3HED, ip, read-out: % inhibition of tumor growth, IP, 150 mg/kg, DX 8
  inhibition in vivo at 150 mg/kg: 86%
6C3HED lymphosarcoma; Mus musculus, 6C3HED, ip, read-out: % inhibition of tumor growth, IP, 300 mg/kg, DX 8
  inhibition in vivo at 300 mg/kg: 94%
6C3HED lymphosarcoma; Mus musculus, 6C3HED, iv, read-out: % inhibition of tumor growth, IV, 12.5 mg/kg, DX 8
  inhibition in vivo at 12.5 mg/kg: 3%
6C3HED lymphosarcoma; Mus musculus, 6C3HED, iv, read-out: % inhibition of tumor growth, IV, 25 mg/kg, DX 8
  inhibition in vivo at 25 mg/kg: 19%
6C3HED lymphosarcoma; [2]
  inhibition in vivo at 150 mg/kg: 22%
6C3HED lymphosarcoma; Mus musculus, 6C3HED, po, read-out: % inhibition of tumor growth, oral, 300 mg/kg, BIDX 8
  inhibition in vivo at 300 mg/kg: 33%
6C3HED lymphosarcoma; Mus musculus, 6C3HED, po
  inhibition in vivo at 600 mg/kg: 34%
6C3HED lymphosarcoma; oral, 150 mg/kg, BIDX 8
  Tox/Tot (mice which died / total): 0/10
6C3HED lymphosarcoma; oral, 150 mg/kg, DX 8
  Tox/Tot (mice which died / total): 0/10
6C3HED lymphosarcoma; oral, 300 mg/kg, BIDX 8
  Tox/Tot (mice which died / total): 0/10
6C3HED lymphosarcoma; oral, 300 mg/kg, DX 8
  Tox/Tot (mice which died / total): 0/10
6C3HED lymphosarcoma; oral, 600 mg/kg, DX 8
  Tox/Tot (mice which died / total): 0/10

## CN=S(=O)(NC(=O)Nc1ccc(Cl)cc1)c1ccc2c(c1)CCC2 (stereo not shown) [Example 55, N-[[(4-chlorophenyl)amino]carbonyl]-N'-methyl-5-indanylsulfonimidamide]
6C3HED lymphosarcoma; Mus musculus, 6C3HED, po, read-out: % inhibition of tumor growth, oral, 75 mg/kg, BIDX 8
  inhibition in vivo at 75 mg/kg: 70%
6C3HED lymphosarcoma; [2]
  inhibition in vivo at 150 mg/kg: 75%
6C3HED lymphosarcoma; oral, 75 mg/kg, BIDX 8
  Tox/Tot (mice which died / total): 0/10
6C3HED lymphosarcoma; oral, 150 mg/kg, BIDX 8
  Tox/Tot (mice which died / total): 1/10
